# Assay results reported in patent publication US8293481B2, “Biomarkers for chronic vascular dysfunction” (Mayo Foundation for Medical Education and Research, priority 2006, dated 2012).
# Tested on: panel of genes listed in b69 and b71 (Tmlhe, Af6, F2, Ywag, PPAR A, Resp18, Edn1, oxytocin and others)
# Assay: Real-time PCR gene expression in aorta post MI, genes listed together as unchanged
# Format: in vivo, rat
# Conditions: post MI groups versus uninfarcted control
# Excerpt: After intubation, rats were ventilated continuously (room air) using a small animal ventilator (Model 683, Harvard Apparatus, Holliston, Mass.). A left lateral thoracotomy incision was made along the 5th intercostal space and after the pericardium was opened, the heart was exteriorized using a retention suture placed at the apex. The left anterior descending coronary artery (LAD) was ligated twice using 6-0 prolene suture (Ethicon, Cornelia, Ga.). After chest closure with running 3-0 vicryl suture (Ethicon), rats were put in a recovery chamber with a heating pad and warming light. The post-operative survival rate reached 80%. […] Confirmation of microarray result by quantitative real-time PCR: The remaining RNA from the aortic or portal vein RNA sample was quantitatively converted to single stranded cDNA using the High-Capacity cDNA Archive Kit (Applied Biosystems, Foster City, Calif.). […] The synthesized cDNA was then mixed with TAQMAN® Universal PCR Master Mix (2.5 μl of cDNA+47.5 μl of RNase-free H2O+50 μl of Master Mix) and loaded onto 384-Well micro fluid cards for quantitative real-time PCR (TAQMAN® Low Density Arrays, Applied Biosystems). […] For each cDNA sample, four replicates were analyzed for real-time PCR. […] The array was then run on the Applied Biosystems 7900HT Fast Real-time PCR System, and the data were analyzed using an Applied Biosystems RQ Manager Software (SDS 2.1). […]
compound,measurement,setting,value
"C[C@H](CS)C(=O)N1CCC[C@H]1C(=O)O [Captopril, 1-[(2S)-3-mercapto-2-methylpropionyl]-L-proline]","expression of 14 genes (Taok1, Raf1, Fmr1, Rock2, Baat, Gls2, Acot8, Tmlhe, Af6, F2, Ywag, PPAR A, Resp18, Edn1 and oxytocin)",2 weeks post infarction,no significant change
same,"expression of 14 genes (MIR16, Agt, Cxcl12, Seh1h, Cox5, HGF, Tmlhe, Af6, F2, Ywag, PPAR A, Resp18, Edn1 and oxytocin)",4 weeks post infarction,no significant change
